Patent US12257290B2, “PIC1 inhibition of myeloperoxidase oxidative activity in an animal model” (priority 2018, dated 2025)
Ends that are not written are not given here.

Tests used:
Format in all cases: biochemical
[1] = test system: complement activation in normal human serum (NHS); experiment: Ovalbumin-antiovalbumin immune complex-initiated complement activation in normal human serum (C5a, iC3b, SC5b-9 ELISA)
Description: Immune complex activation of NHS was performed as follows. NHS was stimulated with three different types of immune complexes (IC) to induce complement activation. Heat-aggregated IgG was generated by incubating intravenous immune globulin at 50 mg/ml at 63° C. for 30 min [26]. Ovalbumin-antiovalbumin immune complexes were made by incubating 0.01 ml anti-ovalbumin antibody with an equal volume of ovalbumin, at 0.25 mg/nil, at 37° C. for 30 minutes and then storing at 4° C. overnight. C1 immune complexes were formed by incubating 0.02 ml anti-C1q goat sera with 5 μl of C1, at 200 μg/ml, at 30° C. for 30 minutes and then placing in an ice water bath. For C5a and C5b-9 assays, activation of NHS was performed by pre-incubating 5% NHS with titrating concentrations of PA-dPEG24 in 0.3 ml of GVBS^++ buffer for 30 minutes at room temperature. […]
ELISA was performed as follows. […] Colorimetric detection was performed with TMB, stopped with H2SO4 and read on a BioTek Synergy HT plate reader at 450 nm.
To provide confirmation of the results with heat-aggregated IgG, the antigen-antibody immune complex most often utilized in animal models of complement activation, ovalbumin and antiovalbumin [27, 28], was then tested. The ovalbumin-antiovalbumin immune complexes were used to stimulate complement activation in NHS and the same three effectors, C5a, iC3b and C5b-9, were measured. […]

[2] = test system: complement activation in normal human serum (NHS); experiment: Heat-aggregated IgG immune complex-initiated complement activation in normal human serum (C5a, iC3b, SC5b-9 ELISA)
Description: Immune complex activation of NHS was performed as follows. NHS was stimulated with three different types of immune complexes (IC) to induce complement activation. Heat-aggregated IgG was generated by incubating intravenous immune globulin at 50 mg/ml at 63° C. for 30 min [26]. Ovalbumin-antiovalbumin immune complexes were made by incubating 0.01 ml anti-ovalbumin antibody with an equal volume of ovalbumin, at 0.25 mg/nil, at 37° C. for 30 minutes and then storing at 4° C. overnight. C1 immune complexes were formed by incubating 0.02 ml anti-C1q goat sera with 5 μl of C1, at 200 μg/ml, at 30° C. for 30 minutes and then placing in an ice water bath. For C5a and C5b-9 assays, activation of NHS was performed by pre-incubating 5% NHS with titrating concentrations of PA-dPEG24 in 0.3 ml of GVBS^++ buffer for 30 minutes at room temperature. Then […] of either heat-aggregated IVIg, or ovalbumin IC, or 5 μI of C1-antiC1q IC was added to the mix for 30 min. at 37° C. This reaction was stopped with the addition of an equal volume of GVBS^−−. For iC3b detection, 1% NHS was used and the rest of the protocol remained the same.
ELISA was performed as follows. Samples were assayed using C5a, iC3b, and SC5b-9 ELISAs. […] Colorimetric detection was performed with TMB, stopped with H2SO4 and read on a BioTek Synergy HT plate reader at 450 nm. […]

MPO = molecular target: T1, MPO (Homo sapiens, UniProt P05164); experiment: MPO-mediated oxidation of TMB (FIG. 16); details: FIG. 16, dose-response, increasing MPO concentrations
T1 sequence (P05164 49-745): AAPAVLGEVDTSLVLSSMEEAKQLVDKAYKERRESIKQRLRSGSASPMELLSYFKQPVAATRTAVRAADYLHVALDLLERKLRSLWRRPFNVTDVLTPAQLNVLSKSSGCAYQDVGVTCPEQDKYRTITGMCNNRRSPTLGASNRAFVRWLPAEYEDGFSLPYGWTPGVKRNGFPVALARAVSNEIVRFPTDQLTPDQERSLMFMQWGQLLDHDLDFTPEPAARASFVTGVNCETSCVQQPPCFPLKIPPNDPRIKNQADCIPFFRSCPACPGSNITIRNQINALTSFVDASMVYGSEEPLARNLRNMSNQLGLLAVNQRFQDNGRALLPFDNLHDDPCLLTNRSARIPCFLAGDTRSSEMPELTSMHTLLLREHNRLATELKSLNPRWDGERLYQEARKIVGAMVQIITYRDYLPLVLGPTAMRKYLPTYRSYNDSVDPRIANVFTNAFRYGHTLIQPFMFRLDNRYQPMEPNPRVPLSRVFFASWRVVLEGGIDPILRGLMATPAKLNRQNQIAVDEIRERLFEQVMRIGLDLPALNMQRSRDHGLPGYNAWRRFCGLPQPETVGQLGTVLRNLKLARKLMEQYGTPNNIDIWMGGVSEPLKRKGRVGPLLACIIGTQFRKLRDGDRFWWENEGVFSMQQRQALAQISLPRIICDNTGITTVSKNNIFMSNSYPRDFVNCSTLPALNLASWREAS
Source text: FIG. 16 is a graph showing PIC1 dose-response inhibition of MPO-mediated oxidation of TMB for increasing concentrations of MPO.
PA-dPEG24 can inhibit the peroxidase effect of MPO in clinical CF sputum samples ex vivo as well as for purified MPO in vitro. […] PA-dPEG24 can inhibit NET formation in vitro, such as NET formation stimulated by any of phorbol 12-myristate 13-acetate (PMA), purified MPO, and immune complex-activated human sera.

“IALILEPICCQERAA-dPEG24 (cysteine pairing not given here) [PA-dPEG24, 15-amino acid PEGylated peptide, 24 PEG moieties at the C-terminus]” was tested, and the “measured SC5b-9” value ([1]; 2 mM PA-dPEG24) was “at the lower limit of detection”, the “PA-dPEG24 concentration giving statistically significant inhibition of each complement effector (C5a, iC3b, C5b-9)” value ([1]; ovalbumin-antiovalbumin in NHS, P<0.03 vs immune complex alone) was no less than 0.25 mM and the “reduction of C5a generation” value ([2]; 1 mM PA-dPEG24, vs heat-aggregated IgG with no inhibitor, P=0.002) was 61%. For the same substance, the “PA-dPEG24 concentration giving statistically significant inhibition of effector (C5a, iC3b, SC5b-9) generation” value ([2]; heat-aggregated IgG in NHS, each assay, P<0.05 vs no inhibitor) was no less than 0.5 mM and the “MPO-mediated oxidation of TMB” value (MPO) was “inhibits MPO-mediated oxidation”.
